Laboratory results: patent publication US20120270237A9, “METHODS FOR THE IDENTIFICATION OF KINASE INTERACTING MOLECULES AND FOR THE PURIFICATION OF KINASE PROTEINS” (Cellzone AG, priority 2009, published 2012)

How the values were obtained:
Assay in all cases: Kinobeads competition binding with immobilized CZC25342, mixed HeLa placenta lysates (Example 5, Table 7)
[1] = target: T1, kinases from mixed HeLa placenta lysates (Homo sapiens, UniProt O75460); conditions: kinase IRE1; 10 μM free compound; HeLa Placenta lysate mix
T1 construct: capturing and identification of kinases from mixed HeLa placenta lysates; endogenous in cells; host or cells: mixed lysate of HeLa cells and placenta tissue
Description: (§1) To one aliquot of cell lysate 10 μM of the free compound (FIG. 2, CZC25342) was added and allowed to bind to proteins in the lysate. Then the affinity matrix with the immobilized compound was added to capture proteins that were not interacting with the previously added free compound. Beads were separated from the lysate and bead bound proteins were eluted in SDS sample buffer and subsequently separated by SDS-Polyacrylamide gel electrophoresis (FIG. 11). Suitable gel bands were cut out and subjected to in-gel proteolytic digestion with trypsin. The second lysate aliquot was processed identically, however no free compound was added (DMSO solvent control). Peptides originating from samples 1 and 2 were labeled with iTRAQ reagents (iTRAQ 114 and iTRAQ 117) and the combined samples were analyzed with a nano-flow liquid chromatography system coupled online to a tandem mass spectrometer (LC-MS/MS) experiment followed by iTRAQ reporter ion quantification in the MS/MS spectra as described in Example 2. The identified kinases are shown in Table 7 including the percent competition values for the sample to which 10 μM free compound had been added. In total of 83 different kinases were identified and competed by different degrees.

[2] = target: T2, kinases from mixed HeLa placenta lysates (Homo sapiens, UniProt O75676); conditions: kinase MSK2; 10 μM free compound; HeLa Placenta lysate mix
T2 construct: capturing and identification of kinases from mixed HeLa placenta lysates; endogenous in cells; host or cells: mixed lysate of HeLa cells and placenta tissue
Description: as §1

[3] = target: T3, kinases from mixed HeLa placenta lysates (Homo sapiens, UniProt P06241); conditions: kinase FYN; 10 μM free compound; HeLa Placenta lysate mix
T3 construct: capturing and identification of kinases from mixed HeLa placenta lysates; endogenous in cells; host or cells: mixed lysate of HeLa cells and placenta tissue
Description: as §1

[4] = target: T4, kinases from mixed HeLa placenta lysates (Homo sapiens, UniProt P07332); conditions: kinase FES; 10 μM free compound; HeLa Placenta lysate mix
T4 construct: capturing and identification of kinases from mixed HeLa placenta lysates; endogenous in cells; host or cells: mixed lysate of HeLa cells and placenta tissue
Description: as §1

[5] = target: T5, kinases from mixed HeLa placenta lysates (Homo sapiens, UniProt P07948); conditions: kinase LYN; 10 μM free compound; HeLa Placenta lysate mix
T5 construct: capturing and identification of kinases from mixed HeLa placenta lysates; endogenous in cells; host or cells: mixed lysate of HeLa cells and placenta tissue
Description: as §1

[6] = target: T6, kinases from mixed HeLa placenta lysates (Homo sapiens, UniProt P08581); conditions: kinase MET; 10 μM free compound; HeLa Placenta lysate mix
T6 construct: capturing and identification of kinases from mixed HeLa placenta lysates; endogenous in cells; host or cells: mixed lysate of HeLa cells and placenta tissue
Description: as §1

[7] = target: T7, kinases from mixed HeLa placenta lysates (Homo sapiens, UniProt P16591); conditions: kinase FER; 10 μM free compound; HeLa Placenta lysate mix
T7 construct: capturing and identification of kinases from mixed HeLa placenta lysates; endogenous in cells; host or cells: mixed lysate of HeLa cells and placenta tissue
Description: as §1

[8] = target: T8, kinases from mixed HeLa placenta lysates (Homo sapiens, UniProt P17252); conditions: kinase PKCa; 10 μM free compound; HeLa Placenta lysate mix
T8 construct: capturing and identification of kinases from mixed HeLa placenta lysates; endogenous in cells; host or cells: mixed lysate of HeLa cells and placenta tissue
Description: as §1

[9] = target: T9, kinases from mixed HeLa placenta lysates (Homo sapiens, UniProt P19784); conditions: kinase CK2a2; 10 μM free compound; HeLa Placenta lysate mix
T9 construct: capturing and identification of kinases from mixed HeLa placenta lysates; endogenous in cells; host or cells: mixed lysate of HeLa cells and placenta tissue
Description: as §1

[10] = target: T10, kinases from mixed HeLa placenta lysates (Homo sapiens, UniProt P27448); conditions: kinase MARK3; 10 μM free compound; HeLa Placenta lysate mix
T10 construct: capturing and identification of kinases from mixed HeLa placenta lysates; endogenous in cells; host or cells: mixed lysate of HeLa cells and placenta tissue
Description: as §1

[11] = target: T11, kinases from mixed HeLa placenta lysates (Homo sapiens, UniProt P29597); conditions: kinase TYK2; 10 μM free compound; HeLa Placenta lysate mix
T11 construct: capturing and identification of kinases from mixed HeLa placenta lysates; endogenous in cells; host or cells: mixed lysate of HeLa cells and placenta tissue
Description: as §1

[12] = target: T12, kinases from mixed HeLa placenta lysates (Homo sapiens, UniProt P30291); conditions: kinase Wee1; 10 μM free compound; HeLa Placenta lysate mix
T12 construct: capturing and identification of kinases from mixed HeLa placenta lysates; endogenous in cells; host or cells: mixed lysate of HeLa cells and placenta tissue
Description: as §1

[13] = target: T13, kinases from mixed HeLa placenta lysates (Homo sapiens, UniProt P42680); conditions: kinase TEC; 10 μM free compound; HeLa Placenta lysate mix
T13 construct: capturing and identification of kinases from mixed HeLa placenta lysates; endogenous in cells; host or cells: mixed lysate of HeLa cells and placenta tissue
Description: as §1

[14] = target: T14, kinases from mixed HeLa placenta lysates (Homo sapiens, UniProt P49841); conditions: kinase GSK3B; 10 μM free compound; HeLa Placenta lysate mix
T14 construct: capturing and identification of kinases from mixed HeLa placenta lysates; endogenous in cells; host or cells: mixed lysate of HeLa cells and placenta tissue
Description: as §1

[15] = target: T15, kinases from mixed HeLa placenta lysates (Homo sapiens, UniProt P54646); conditions: kinase AMPKa2; 10 μM free compound; HeLa Placenta lysate mix
T15 construct: capturing and identification of kinases from mixed HeLa placenta lysates; endogenous in cells; host or cells: mixed lysate of HeLa cells and placenta tissue
Description: as §1

[16] = target: T16, kinases from mixed HeLa placenta lysates (Homo sapiens, UniProt P68400); conditions: kinase CK2a1; 10 μM free compound; HeLa Placenta lysate mix
T16 construct: capturing and identification of kinases from mixed HeLa placenta lysates; endogenous in cells; host or cells: mixed lysate of HeLa cells and placenta tissue
Description: as §1

[17] = target: T17, kinases from mixed HeLa placenta lysates (Homo sapiens, UniProt P78527); conditions: kinase DNAPK; 10 μM free compound; HeLa Placenta lysate mix
T17 construct: capturing and identification of kinases from mixed HeLa placenta lysates; endogenous in cells; host or cells: mixed lysate of HeLa cells and placenta tissue
Description: as §1

[18] = target: T18, kinases from mixed HeLa placenta lysates (Homo sapiens, UniProt Q13131); conditions: kinase AMPKa1; 10 μM free compound; HeLa Placenta lysate mix
T18 construct: capturing and identification of kinases from mixed HeLa placenta lysates; endogenous in cells; host or cells: mixed lysate of HeLa cells and placenta tissue
Description: as §1

[19] = target: T19, kinases from mixed HeLa placenta lysates (Homo sapiens, UniProt Q13555); conditions: kinase CaMK2g; 10 μM free compound; HeLa Placenta lysate mix
T19 construct: capturing and identification of kinases from mixed HeLa placenta lysates; endogenous in cells; host or cells: mixed lysate of HeLa cells and placenta tissue
Description: as §1

[20] = target: T20, kinases from mixed HeLa placenta lysates (Homo sapiens, UniProt Q13557); conditions: kinase CaMK2d; 10 μM free compound; HeLa Placenta lysate mix
T20 construct: capturing and identification of kinases from mixed HeLa placenta lysates; endogenous in cells; host or cells: mixed lysate of HeLa cells and placenta tissue
Description: as §1

[21] = target: T21, kinases from mixed HeLa placenta lysates (Homo sapiens, UniProt Q16513); conditions: kinase PKN2; 10 μM free compound; HeLa Placenta lysate mix
T21 construct: capturing and identification of kinases from mixed HeLa placenta lysates; endogenous in cells; host or cells: mixed lysate of HeLa cells and placenta tissue
Description: as §1

[22] = target: T22, kinases from mixed HeLa placenta lysates (Homo sapiens, UniProt Q5TCX8); conditions: kinase MLK4; 10 μM free compound; HeLa Placenta lysate mix
T22 construct: capturing and identification of kinases from mixed HeLa placenta lysates; endogenous in cells; host or cells: mixed lysate of HeLa cells and placenta tissue
Description: as §1

[23] = target: T23, kinases from mixed HeLa placenta lysates (Homo sapiens, UniProt Q96C45); conditions: kinase ULK4; 10 μM free compound; HeLa Placenta lysate mix
T23 construct: capturing and identification of kinases from mixed HeLa placenta lysates; endogenous in cells; host or cells: mixed lysate of HeLa cells and placenta tissue
Description: as §1

[24] = target: T24, kinases from mixed HeLa placenta lysates (Homo sapiens, UniProt Q96RR4); conditions: kinase CaMKK2; 10 μM free compound; HeLa Placenta lysate mix
T24 construct: capturing and identification of kinases from mixed HeLa placenta lysates; endogenous in cells; host or cells: mixed lysate of HeLa cells and placenta tissue
Description: as §1

In the case of `CS(=O)(=O)Nc1ccccc1Nc1nc(Nc2cccc(OCCN)c2)ncc1F` [CZC25342, N-(2-(2-(3-(2-aminoethoxy)phenylamino)-5-fluoropyrimidin-4-ylamino)phenyl)methanesulfonamide], the “Competition % IRE1” value [1] is reported as 83.4%, the “Competition % MSK2” value [2] is reported as 93.2% and the “Competition % FYN” value [3] is reported as 93.2%. For the same compound, the “Competition % FES” value [4] was 96.9%, the “Competition % LYN” value [5] was 83.1% and the “Competition % MET” value [6] was 94.2%. For the same compound, the “Competition % FER” value [7] was 96.7%, the “Competition % PKCa” value [8] was 96.4% and the “Competition % CK2a2” value [9] was 95.4%. For the same compound, the “Competition % MARK3” value [10] was 96.2%, the “Competition % TYK2” value [11] was 96.6% and the “Competition % Wee1” value [12] was 97.5%. For the same compound, the “Competition % TEC” value [13] was 89.3%, the “Competition % GSK3B” value [14] was 92.5% and the “Competition % AMPKa2” value [15] was 97.1%. For the same compound, the “Competition % CK2a1” value [16] was 95.2%, the “Competition % DNAPK” value [17] was 89.2% and the “Competition % AMPKa1” value [18] was 95.2%. For the same compound, the “Competition % CaMK2g” value [19] was 75.2%, the “Competition % CaMK2d” value [20] was 40.6% and the “Competition % PKN2” value [21] was 98%. The “Competition % MLK4” value [22] was 85.8%, the “Competition % ULK4” value [23] was 84.7% and the “Competition % CaMKK2” value [24] was 96.3%.
